According to PubChem BioAssay (NCI):
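A five-concentration, 48-hour dose response in 96-well plates underlies each endpoint, interpolated linearly between surrounding concentrations. GI50 is the concentration that inhibits growth by half. TGI denotes the concentration required for complete inhibition of growth.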

What was measured:
Assay in all cases: DTP human tumour cell line panel, 48 h
[1] = system: HCT-116 colon
[2] = system: TK-10 renal
[3] = system: UO-31 renal
[4] = system: SK-MEL-5 melanoma
[5] = system: SF-539 CNS
[6] = system: NCI-H23 lung
[7] = system: NCI/ADR-RES ovarian
[8] = system: SF-268 CNS
[9] = system: SNB-19 CNS
[10] = system: T-47D breast
[11] = system: M14 melanoma
[12] = system: HCC-2998 colon
[13] = system: HOP-92 NSCLC
[14] = system: HS 578T breast
[15] = system: KM12 colon
[16] = system: MOLT-4 leukemia
[17] = system: MDA-MB-435
[18] = system: DU-145 prostate
[19] = system: MDA-MB-231 breast
[20] = system: UACC-62 melanoma
[21] = system: SK-OV-3 ovarian
[22] = system: CAKI-1 renal
[23] = system: HT29 colon
[24] = system: SNB-75 CNS
[25] = system: SF-295 CNS
[26] = system: SR leukemia
[27] = system: NCI-H226 lung
[28] = system: COLO 205 colon
[29] = system: SK-MEL-28 melanoma
[30] = system: SW-620 colon
[31] = system: PC-3 prostate
[32] = system: LOX IMVI melanoma
[33] = system: OVCAR-5 ovarian
[34] = system: OVCAR-4 ovarian
[35] = system: K-562 leukemia
[36] = system: SN12C renal
[37] = system: MCF7 breast
[38] = system: RXF 393 renal
[39] = system: OVCAR-3 ovarian
[40] = system: BT-549 breast
[41] = system: 786-0 renal
[42] = system: OVCAR-8 ovarian
[43] = system: RPMI-8226 leukemia
[44] = system: SK-MEL-2 melanoma
[45] = system: A498 renal
[46] = system: UACC-257 melanoma
[47] = system: HL-60(TB) leukemia
[48] = system: A549 NSCLC
[49] = system: HCT-15 colon
[50] = system: EKVX NSCLC
[51] = system: HOP-62 NSCLC
[52] = system: IGROV1 ovarian
[53] = system: NCI-H522 lung
[54] = system: CCRF-CEM leukemia
[55] = system: NCI-H460 lung
[56] = system: U251 CNS

## CC1CN1C1=CC(=O)c2c(c(CO)cn2C)C1=O (centres undefined)
[1]
  GI50: 137 nM
  TGI: 1030 nM
[2]
  GI50: 261 nM
  TGI: 1490 nM
[3]
  GI50: 124 nM
  TGI: 386 nM
[4]
  GI50: 57.7 nM
  TGI: 191 nM
[5]
  GI50: 31.3 nM
  TGI: 230 nM
[6]
  TGI: 26.5 nM
[7]
  GI50: 84.8 nM
  TGI: 926 nM
[8]
  GI50: 257 nM
  TGI: 5280 nM
[9]
  GI50: 247 nM
  TGI: 3740 nM
[10]
  GI50: 8340 nM
  TGI: > 34600 nM
[11]
  GI50: 13.9 nM
  TGI: 127 nM
[12]
  GI50: 105 nM
  TGI: 415 nM
[13]
  GI50: 9920 nM
  TGI: 35600 nM
[14]
  GI50: 689 nM
[15]
  GI50: 261 nM
  TGI: 1380 nM
[16]
  GI50: 5430 nM
  TGI: > 100000 nM
[17]
  GI50: 311 nM
  TGI: 1320 nM
[18]
  GI50: < 11.2 nM
  TGI: 234 nM
[19]
  GI50: 20000 nM
  TGI: 46200 nM
[20]
  GI50: 144 nM
  TGI: 431 nM
[21]
  GI50: 509 nM
  TGI: 23200 nM
[22]
  GI50: 18 nM
  TGI: 293 nM
[23]
  GI50: 220 nM
[24]
  GI50: 438 nM
  TGI: 2650 nM
[25]
  GI50: 76 nM
  TGI: 566 nM
[26]
  GI50: 11.2 nM
  TGI: 69 nM
[27]
  GI50: 324 nM
  TGI: 2100 nM
[28]
  GI50: 171 nM
[29]
  GI50: 491 nM
[30]
  GI50: 105 nM
  TGI: 1020 nM
[31]
  GI50: 313 nM
  TGI: 3300 nM
[32]
  GI50: 66 nM
  TGI: 387 nM
[33]
  GI50: 1550 nM
  TGI: 14800 nM
[34]
  GI50: 1660 nM
  TGI: 6340 nM
[35]
  GI50: 833 nM
  TGI: 64500 nM
[36]
  GI50: 70.6 nM
  TGI: 1280 nM
[37]
  GI50: 63.4 nM
[38]
  GI50: 861 nM
[39]
  GI50: 254 nM
  TGI: 1110 nM
[40]
  GI50: 293 nM
  TGI: 1570 nM
[41]
  GI50: 232 nM
  TGI: 2520 nM
[42]
  GI50: 628 nM
  TGI: > 20500 nM
[43]
  GI50: 241 nM
  TGI: 3320 nM
[44]
  GI50: 300 nM
  TGI: 3320 nM
[45]
  GI50: 358 nM
  TGI: 1760 nM
[46]
  GI50: 925 nM
  TGI: 3650 nM
[47]
  GI50: 22900 nM
  TGI: 75200 nM
[48]
  GI50: 62.3 nM
  TGI: 3180 nM
[49]
  GI50: 65.1 nM
  TGI: 649 nM
[50]
  GI50: 3090 nM
  TGI: 17000 nM
[51]
  GI50: 62 nM
  TGI: 386 nM
[52]
  GI50: 306 nM
  TGI: 5150 nM
[53]
  GI50: 200 nM
  TGI: 1980 nM
[54]
  GI50: 3350 nM
  TGI: 62800 nM
[55]
  TGI: 651 nM
[56]
  GI50: 152 nM
  TGI: 835 nM
